{"source": "patent US20050222055A1", "about": "(priority 2002, published 2005)", "key": {"[1]": {"biological_target": "16S rRNA", "assay": "Bond constant by competitive luminescence anisotropy (CRP probe displacement), 16S rRNA", "conditions": "luminescence anisotropy competition with CRP, 20° C., HEPES pH 7.5; read-out: binding force (KD) against 16s rRNA", "method": "(§1) A sense DNA of 16S rRNA (sequence listing 1) and an antisense DNA of 16S rRNA (sequence listing 2); a sense DNA of RRE RNA (sequence listing 3) and an antisense DNA of RRE RNA (sequence listing 4); and a sense DNA of 23S RNA (sequence listing 5) and an antisense DNA of 23S RNA (sequence listing 6) was prepared according to the present invention.\n(§2) Paricularly, the two DNAs comprising sense and antisense (2.5 nanomole, respectively), 5× buffer solution (200 mM Tris-HCl, 30 mM MgCl2, 10 mM spermidine, 50 mM NaCl, pH 7.9; 20 μl), 100 mM DL-dithiotheitol (DTT; 20 μl), four nucleotide tri phosphate mixture (2.5 mM, 20 μl), T7 RNA polymerase (50 units/mL; 1 μl) and diluted water (34 μl) were mixed and cultured at 37° C. for 2 hours. And then 1 unit/ml of Rnase-free RQ1 Dnase was added to the mixture and cultured at 37° C. for 10 minutes. 100 μl of a PCI mixture solution (phenol:chloroform:[…]=25:24:1) was added to the obtained mixture, mixed at room temperature for 5 minutes and then centrifuged at 1400 rpm for 10 minutes. […]\n(§3) The paromomycin bonded with tetramethylrhodamine (hereinafter referred to as “[…]”) is used as a luminescence fluorescent probe. The luminescence anisotropy is measured by establishing a thermostat of 20° C. at the Perkin-Elmer LS-50B luminescence spectroscope. The luminescence absorptance of CRP is 510 nm and its luminescence fluorescent is observed at 550 nm. […]"}, "[2]": {"biological_target": "RRE RNA", "assay": "Bond constant by competitive luminescence anisotropy (CRP probe displacement), RRE RNA", "conditions": "luminescence anisotropy competition with CRP, 20° C., HEPES pH 7.5; read-out: binding force (KD) against RRE RNA", "method": "as §1, §2, §3"}, "[3]": {"biological_target": "23S rRNA", "assay": "Bond constant by competitive luminescence anisotropy (CRP probe displacement), 23S rRNA", "conditions": "read-out: binding force (KD) against 23S RNA; luminescence anisotropy competition with CRP, 20° C., HEPES pH 7.5; read-out: binding force (KD) against 32S RNA", "method": "as §1, §2, §3"}}, "data": [{"substance": "Neomycin", "values": [{"measurement": "Kd", "setting": "[1]", "value": "> 2000", "unit": "nM"}, {"measurement": "Kd", "setting": "[2]", "value": 180, "unit": "nM"}, {"measurement": "Kd", "setting": "[3]", "value": "> 2000", "unit": "nM"}]}]}
